Measurements taken from PubChem BioAssay (NCI).
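Grown in 96-well plates, cells were treated for 48 hours with each compound at five concentrations. Insufficient inhibition: endpoint recorded as highest concentration tested. TGI: total growth inhibition.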

Tests used:
Assay in all cases: NCI-60 cell line screen, 48 h
[1] = tested on: RXF 393 renal
[2] = tested on: ACHN renal
[3] = tested on: RPMI-8226 leukemia
[4] = tested on: NCI-H522 lung
[5] = tested on: M14 melanoma
[6] = tested on: IGROV1 ovarian
[7] = tested on: EKVX NSCLC
[8] = tested on: NCI-H460 lung
[9] = tested on: SK-OV-3 ovarian
[10] = tested on: K-562 leukemia
[11] = tested on: LOX IMVI melanoma
[12] = tested on: TK-10 renal
[13] = tested on: SNB-19 CNS
[14] = tested on: HL-60(TB) leukemia
[15] = tested on: UACC-62 melanoma
[16] = tested on: SK-MEL-5 melanoma
[17] = tested on: CAKI-1 renal
[18] = tested on: HCT-15 colon
[19] = tested on: OVCAR-8 ovarian
[20] = tested on: MDA-N
[21] = tested on: SF-268 CNS
[22] = tested on: HS 578T breast
[23] = tested on: MDA-MB-231 breast
[24] = tested on: PC-3 prostate
[25] = tested on: MALME-3M melanoma
[26] = tested on: BT-549 breast
[27] = tested on: SK-MEL-2 melanoma
[28] = tested on: DU-145 prostate
[29] = tested on: A549 NSCLC
[30] = tested on: SF-295 CNS
[31] = tested on: HOP-92 NSCLC
[32] = tested on: CCRF-CEM leukemia
[33] = tested on: OVCAR-4 ovarian
[34] = tested on: KM12 colon
[35] = tested on: A498 renal
[36] = tested on: MCF7 breast
[37] = tested on: MDA-MB-435
[38] = tested on: SW-620 colon
[39] = tested on: OVCAR-3 ovarian
[40] = tested on: SK-MEL-28 melanoma
[41] = tested on: HCC-2998 colon
[42] = tested on: SF-539 CNS
[43] = tested on: NCI-H226 lung
[44] = tested on: SNB-75 CNS
[45] = tested on: MOLT-4 leukemia
[46] = tested on: HCT-116 colon
[47] = tested on: UO-31 renal
[48] = tested on: UACC-257 melanoma
[49] = tested on: NCI-H23 lung
[50] = tested on: COLO 205 colon
[51] = tested on: HOP-62 NSCLC
[52] = tested on: T-47D breast
[53] = tested on: SR leukemia
[54] = tested on: 786-0 renal
[55] = tested on: SN12C renal
[56] = tested on: HT29 colon

Which results are given for `C#C[C@]1(O)[C@@H](CO)O[C@@H](n2ccc(N)nc2=O)[C@@H]1O`?
TGI [1]: 2.12 µM; TGI [2]: 0.612 µM; TGI [3]: 0.192 µM; TGI [4]: 0.0365 µM; TGI [5]: 3.06 µM; TGI [6]: > 38.1 µM; TGI [7]: > 19.9 µM; TGI [8]: 0.508 µM; TGI [9]: > 100 µM; TGI [10]: > 100 µM; TGI [11]: 0.0945 µM; TGI [12]: 2.65 µM; TGI [13]: > 24 µM; TGI [14]: > 100 µM; TGI [15]: 0.4 µM; TGI [16]: 0.371 µM; TGI [17]: 0.122 µM; TGI [18]: > 100 µM; TGI [19]: > 100 µM; TGI [20]: 0.175 µM; TGI [21]: 6.04 µM; TGI [22]: > 40 µM; TGI [23]: > 100 µM; TGI [24]: 0.762 µM; TGI [25]: 0.925 µM; TGI [26]: 22.2 µM; TGI [27]: 0.617 µM; TGI [28]: 6.22 µM; TGI [29]: > 100 µM; TGI [30]: 3.07 µM; TGI [31]: 12.7 µM; TGI [32]: 4.27 µM; TGI [33]: 5.33 µM; TGI [34]: 4.4 µM; TGI [35]: 0.54 µM; TGI [36]: > 100 µM; TGI [37]: 0.219 µM; TGI [38]: 3.92 µM; TGI [39]: > 20.8 µM; TGI [40]: 4.27 µM; TGI [41]: 0.196 µM; TGI [42]: 13.5 µM; TGI [43]: 3.66 µM; TGI [44]: 1.82 µM; TGI [45]: > 32 µM; TGI [46]: > 33.9 µM; TGI [47]: 0.395 µM; TGI [48]: 8.03 µM; TGI [49]: 1.78 µM; TGI [50]: 0.203 µM

For `CC(C)(Oc1ccc2c(=O)cc(-c3ccccc3)oc2c1)C(=O)N1CCN(c2ccccc2)CC1`, which TGI [1] is on record?
The TGI was 6.73 µM.

And the TGI [3]?
Its TGI is > 10 µM.

What about the TGI [5] of the same compound?
Its TGI is > 10 µM.

And the TGI [6]?
Its TGI is > 10 µM.

What about the TGI [7] of the same compound?
The TGI was > 10 µM.

And the TGI [9]?
The TGI was > 10 µM.

And the TGI [10]?
Its TGI is > 10 µM.

And the TGI [11]?
The TGI was > 10 µM.

What about the TGI [12] of the same compound?
The TGI was > 10 µM.

And the TGI [14]?
The TGI was 4.38 µM.

What about the TGI [15] of the same compound?
The TGI was > 10 µM.

And the TGI [51]?
The TGI was > 10 µM.

What about the TGI [52] of the same compound?
Its TGI is > 10 µM.

And the TGI [53]?
The TGI was > 10 µM.

And the TGI [16]?
The TGI was > 10 µM.

What about the TGI [17] of the same compound?
The TGI was > 10 µM.

What about the TGI [18] of the same compound?
Its TGI is > 10 µM.

And the TGI [19]?
Its TGI is > 10 µM.

What about the TGI [20] of the same compound?
Its TGI is > 10 µM.

And the TGI [21]?
The TGI was > 10 µM.

And the TGI [23]?
The TGI was > 10 µM.

And the TGI [24]?
The TGI was > 10 µM.

What about the TGI [25] of the same compound?
Its TGI is > 10 µM.

What about the TGI [54] of the same compound?
Its TGI is > 10 µM.

And the TGI [28]?
The TGI was > 10 µM.

And the TGI [29]?
Its TGI is > 10 µM.

What about the TGI [30] of the same compound?
Its TGI is > 10 µM.

What about the TGI [32] of the same compound?
Its TGI is > 10 µM.

And the TGI [34]?
Its TGI is > 10 µM.

And the TGI [36]?
The TGI was > 10 µM.

And the TGI [38]?
Its TGI is > 10 µM.

What about the TGI [40] of the same compound?
Its TGI is > 10 µM.

And the TGI [41]?
Its TGI is > 10 µM.

And the TGI [55]?
The TGI was > 10 µM.

And the TGI [44]?
Its TGI is > 10 µM.

What about the TGI [45] of the same compound?
The TGI was > 10 µM.

What about the TGI [56] of the same compound?
Its TGI is > 10 µM.

What about the TGI [48] of the same compound?
The TGI was > 10 µM.

And the TGI [49]?
Its TGI is > 10 µM.

Which TGI [1] does the source give for `C1=C(c2ccccc2)O[C@H](COCc2ccccc2)C(OCc2ccccc2)[C@@H]1OCc1ccccc1` (stereo partly drawn) here?
The TGI was > 10 µM.

What about the TGI [3] of the same compound?
Its TGI is > 10 µM.

And the TGI [5]?
The TGI was > 10 µM.

And the TGI [6]?
Its TGI is > 10 µM.

And the TGI [7]?
Its TGI is > 10 µM.

And the TGI [9]?
The TGI was > 10 µM.

And the TGI [10]?
The TGI was > 10 µM.

What about the TGI [12] of the same compound?
The TGI was > 10 µM.

And the TGI [14]?
The TGI was > 10 µM.

What about the TGI [15] of the same compound?
The TGI was > 10 µM.

And the TGI [51]?
The TGI was > 10 µM.

What about the TGI [52] of the same compound?
The TGI was > 10 µM.

What about the TGI [53] of the same compound?
Its TGI is > 10 µM.

And the TGI [16]?
Its TGI is > 10 µM.

And the TGI [17]?
The TGI was > 10 µM.

And the TGI [18]?
Its TGI is > 10 µM.

What about the TGI [19] of the same compound?
Its TGI is > 10 µM.

And the TGI [20]?
The TGI was > 10 µM.

What about the TGI [21] of the same compound?
Its TGI is > 10 µM.

And the TGI [23]?
Its TGI is > 10 µM.

What about the TGI [24] of the same compound?
Its TGI is > 10 µM.

What about the TGI [25] of the same compound?
The TGI was > 10 µM.

And the TGI [54]?
The TGI was > 10 µM.

And the TGI [28]?
The TGI was > 10 µM.

What about the TGI [29] of the same compound?
Its TGI is > 10 µM.

What about the TGI [30] of the same compound?
Its TGI is > 10 µM.

What about the TGI [32] of the same compound?
Its TGI is > 10 µM.

And the TGI [34]?
The TGI was > 10 µM.

What about the TGI [36] of the same compound?
The TGI was > 10 µM.

What about the TGI [38] of the same compound?
The TGI was > 10 µM.

And the TGI [40]?
Its TGI is > 10 µM.

What about the TGI [41] of the same compound?
Its TGI is > 10 µM.

What about the TGI [55] of the same compound?
The TGI was > 10 µM.

And the TGI [44]?
Its TGI is > 10 µM.

What about the TGI [45] of the same compound?
Its TGI is > 10 µM.

And the TGI [56]?
Its TGI is > 10 µM.

And the TGI [48]?
The TGI was > 10 µM.

And the TGI [49]?
Its TGI is > 10 µM.

And the TGI [50]?
Its TGI is > 10 µM.
